# In patent publication US5055480A, “Topically active ocular gem-diacylthiadiazole sulfonamide carbonic anhydrase inhibitors” (Research Corporation Technologies, Inc., priority 1990, dated 1991):
# Assays:
# [1] = biological target: purified carbonic anhydrase (Homo sapiens, UniProt P00918); assay: Enzymatic carbonic anhydrase inhibition assay (modification of Maren's micromethod); type: biochemical; settings: relative to acetazolamide control = 100%
# Protocol: CAI efficacy and potency are assessed using an enzymatic method. […] Essentially, a reaction volume of 0.8 mL containing a carbonate/bicarbonate buffer, phenol red, purified carbonic anhydrase, and inhibitor is maintained at 0° and saturated with CO2 by constant bubbling. The time required for acidification to a color change endpoint is monitored as the dependent variable.
# [2] = oral administration; cited from earlier work
# [3] = topical CAI, lowering of IOP; cited from earlier work
Relative CA inhibition Potency [1] [%],Structure (SMILES),further results
22,NS(=O)(=O)c1nnc(NC(CCC(=O)O)C(=O)O)s1 (stereo not drawn) [Example 3],–
20,NS(=O)(=O)c1nnc(NC(CCCC(=O)O)C(=O)O)s1 (stereo not drawn) [Example 4],–
60,NS(=O)(=O)c1nnc(NC(CCC(=O)O)CC(=O)O)s1 (stereo not drawn) [Example 5],–

# Continued, compound first:
Structure (SMILES),Relative CA inhibition Potency [1] [%],further results
NS(=O)(=O)c1nnc(NC(CC(=O)O)C(=O)O)s1 (stereo not drawn) [Example 2],48,–
"CC(=O)Nc1nnc(S(N)(=O)=O)s1 [acetazolamide, 2-acetylamino-1,3,4-thiadiazole-5-sulfonamide]",–,effect on IOP [2]: decrease IOP
Nc1ccc2nc(S(N)(=O)=O)sc2c1 [aminozolamide],–,efficacy in clinical trial [3]: partially effective
